Two molecules from patent publication US7718390B2, “Toxoplasma gondii cylclic GMP dependent protein kinase G as a chemotherapeutic target for antiprotozoal agents” (priority 1999, dated 2010) can be followed below.

Like-named read-outs stand apart in the source and are kept apart here.

Assay [1] has as its target E. tenella PKG (Eimeria tenella, UniProt Q8MMZ8). As to the kind of experiment: biochemical. The class given is biochemical. Particulars: for IC50: read-out: IC50, inhibition of PKG catalytic activity.
Method: The enzyme inhibition assay involves adding PKG or an extract containing PKG to mixtures of enzyme substrates (one of which is radiolableled) and the test compound, each of which are present in known concentrations. The amount of the enzyme is chosen such that less than 20% of the radiolabeled substrate (usually [^32P]- or [^33P]-ATP,) is consumed during the assay. The assay is carried out with the test compound at a series of different dilution levels. After a period of incubation, the labeled portion of the ATP substrate becomes covalently attached by enzymatic action to the peptide or protein substrate. This reaction product is separated from unincorporated precursor and counted.
E. tenella PKG purified fraction (obtained as described in Example 3) (0.05 μl) is incubated for 2 hours at room temperature in 20 μl of an incubation mixture containing: 25 mM HEPES, pH 7.4, 10 mM MgCl2, 5 mM beta-mercaptoethanol, 20 mM beta-glycerophosphate (or 100 μM sodium orthovanadate), 10 μM cGMP, 2 μM ATP, 10 nM [^33P] ATP (2000 Ci/mmole), 400 μM Kemptide (or 2 mM Kemptide or 0.43 mg/ml myelin basic protein). The reaction is then quenched with 2.5 μl of 0.25 M phosphoric acid per 20 μl assay volume, and the mixture is spotted on Whatman P81 chromatography paper. The chromatography paper is allowed to dry for 2 minutes, washed 5 times for 3 min. each with 150 mls of 75 mM phosphoric acid, then washed briefly with 95% ethanol. After air drying, labeled kemptide remaining on the filter is quantitated by liquid scintillation counting.
E. tenella PKG purified fraction as described above (0.05 μl) was incubated for 2 hours at room temperature in 20 μl of an incubation mixture containing: 25 mM HEPES, pH 7.4, 10 mM MgCl2, 5 mM beta-mercaptoethanol, 20 mM beta-glycerophosphate (or 100 μM sodium orthovanadate), 10 μM cGMP, 2 μM ATP, 10 nM [^33P] ATP (2000 Ci/mmole), 400 μM Kemptide (or 2 mM Kemptide or 0.43 mg/ml myelin basic protein). […] After air drying, labeled kemptide remaining on the filter was quantitated by liquid scintillation counting.
The subject of assay [2] is E. tenella PKG (120 kDa protein). As to the kind of experiment: Competitive binding assay using [3H] Inhibitor Compound. On the set-up: species or system Eimeria tenella. Particulars: purified native PKG fraction. As for the experimental part:
PKG is incubated with appropriately diluted [^3H] Inhibitor Compound for 60 minutes on ice and free ligand is separated from bound ligand by elution through 0.8 ml G-25 gel filtration columns (purchased from AGTC). The void volume, containing ligand-bound protein, is collected and radioactivity assessed by liquid scintillation counting. For competitive binding studies, excess or appropriately diluted cold competitor(s) are added simultaneously with, or 0.01-5 minutes before, the addition of radiolabeled compound. The concentration of the test compound required to inhibit 50% (IC50) of the binding of the labeled inhibitor to the parasite drug binding protein(s) is calculated.
For the competitive binding assay PKG may be the S100 fraction, crude preparation containing PKG activity, or recombinant PKG. Generally, the PKG preparation contains 20-50 μg of protein.
The S100 fraction was dialyzed against 2 L of Buffer A (30 mM sodium phosphate, pH 7.4, 1 mM DTT, 1 mM EDTA, 20% glycerol, 10 mM sodium fluoride, 0.1 mM sodium orthovanadate) overnight at room temperature. The dialysate was centrifuged at 100,000×g for 1 hour and the pellet discarded. […]
(d) cGMP agarose affinity chromatography. […] Fractions were analyzed for [^3H]-Inhibitor Compound binding, PKG activity and by silver staining following polyacrylamide gel electrophoresis. […]

E. tenella PKG, sequence (Q8MMZ8 2-1003): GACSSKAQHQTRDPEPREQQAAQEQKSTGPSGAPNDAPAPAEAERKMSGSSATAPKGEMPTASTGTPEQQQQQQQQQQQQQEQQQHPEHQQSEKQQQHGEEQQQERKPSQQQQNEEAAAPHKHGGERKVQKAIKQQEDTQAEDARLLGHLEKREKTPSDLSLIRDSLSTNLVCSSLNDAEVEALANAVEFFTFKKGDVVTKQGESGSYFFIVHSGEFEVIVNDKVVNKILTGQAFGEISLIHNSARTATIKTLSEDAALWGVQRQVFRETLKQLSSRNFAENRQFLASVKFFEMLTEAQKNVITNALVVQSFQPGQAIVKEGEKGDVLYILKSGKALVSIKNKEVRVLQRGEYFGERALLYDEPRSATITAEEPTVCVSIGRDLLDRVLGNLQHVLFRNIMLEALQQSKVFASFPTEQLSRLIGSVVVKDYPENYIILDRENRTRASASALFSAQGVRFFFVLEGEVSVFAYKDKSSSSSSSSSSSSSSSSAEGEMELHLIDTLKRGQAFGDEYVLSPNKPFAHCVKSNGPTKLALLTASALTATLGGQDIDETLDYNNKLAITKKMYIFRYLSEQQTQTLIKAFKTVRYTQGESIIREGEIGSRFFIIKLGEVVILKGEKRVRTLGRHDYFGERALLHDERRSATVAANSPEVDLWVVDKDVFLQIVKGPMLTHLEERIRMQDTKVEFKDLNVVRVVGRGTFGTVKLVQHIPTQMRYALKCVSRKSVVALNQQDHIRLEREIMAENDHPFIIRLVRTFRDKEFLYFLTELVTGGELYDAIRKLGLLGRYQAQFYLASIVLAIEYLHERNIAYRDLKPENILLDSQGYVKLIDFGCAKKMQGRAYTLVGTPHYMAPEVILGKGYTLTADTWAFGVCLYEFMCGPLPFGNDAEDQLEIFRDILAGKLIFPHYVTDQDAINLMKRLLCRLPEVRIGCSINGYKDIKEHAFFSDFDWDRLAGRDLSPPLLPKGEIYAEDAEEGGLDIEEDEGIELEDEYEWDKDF

Regarding `Nc1nc2c(ncn2[C@@H]2O[C@@H]3COP(=O)(O)O[C@H]3[C@H]2O)c(=O)[nH]1` [cGMP], in assay [1] (biochemically purified native E. tenella protein, compared with absence of cyclic nucleotide cofactors), the “stimulation of kinase activity by cyclic nucleotide cofactor” value is on record as “greater than 400 fold”.

As for `CN1CCC(c2cc(-c3ccncc3)c(-c3ccc(F)cc3)[nH]2)CC1` [Inhibitor Compound, 2-(4-fluorophenyl)-5-(N-methylpiperidin-4-yl)-3-(4-pyridyl)pyrrole], in assay [2], the “binding to the 120 kDa E. tenella protein (PKG)” value is on record as “specifically binds”. Also, the IC50 – broadly, the point on the concentration scale where inhibition reaches its midpoint – in assay [1] (native E. tenella PKG) is less than 5 nM; in assay [1] (recombinant expressed E. tenella PKG (Et.PKG7, Sf9 cells)), less than 5 nM.
